Literature values in patent US20050085485A1, “Orally dispersible pharmaceutical piribedil composition” (priority 2002, published 2005).

Details: humans

period over which therapeutic levels are spread out (currently marketed prolonged-release form, 50 mg dose): more than 24 hours
bioavailability by the oral route (oral route in relation to the parenteral route): low
Structure (SMILES): c1cnc(N2CCN(Cc3ccc4c(c3)OCO4)CC2)nc1 [piribedil, Piribedil]
